This note sets out measurements from patent US11571480B2, “Multi-ligand drug conjugates and uses thereof” (priority 2015, dated 2023).

Data set [1] can be described thus: Cytotoxicity test of conjugate LDC11B. The data set is classed as cell-based, human. The settings on record: human, 293A embryonic kidney cells, incubated 15-30 min, then 2-3 days. The method, then:
(§1) Culture medium: RPMI 1640 Medium, no folic acid
(§2) 1) human lung cancer cell H460, ovarian cancer cell SKOV3, human embryonic kidney cell 293A were incubated at 37° C., 5% CO2 in RPMI 1640 medium containing 10% fetal bovine serum, the cells were passaged every 2-3 days.
(§3) 2) human lung cancer cell H460, ovarian cancer cell SKOV3, human embryonic kidney cell 293A were plated at 1×10^3 cells per well (96-well plate) and incubated for 8-12 h at 37° C., 5% CO2.
(§4) 3) Stock solutions of LDC conjugates or control were prepared in PBS solution. 100 μL/well of serially diluted LDC conjugates or control was added to the cells in the plate and incubated for 15-30 min at 37° C., 5% CO2. The culture medium in the wells was then removed by aspiration and the cells were incubated in fresh culture medium without conjugates (150 μL/well) for 2-3 days at 37° C., 5% CO2.
(§5) 4) CellTiter 96® Aqueous One Solution Cell Proliferation Assay (Promega) was added to each well to measure the amount of […] cells, and the plate was incubated in an incubator for 1 h at 37° C., 5% CO2.
(§6) 5) The plate was read at 490 nm on a microplate reader, and the cell survivals were compared for cells with or without the treatment of LDC conjugates. The LDC drug concentrations that are required for 50% cell death (IC50 values) were determined.

For data set [2], the system named is human lung cancer cell H460. Put plainly: Cytotoxicity test of conjugate LDC11B. Conditions: H460, incubated 15-30 min, then 2-3 days. It is filed as cell-based. The protocol: as §1, §2, §3, §4, §5, §6
For data set [3], the system named is Transplanted H460 tumor. The data set can be described thus: Inhibitory assay of conjugates LDC11A, LDC11B against xenograf tumors. It is filed as in vivo, nude mice. The method, then: (§7) Animal: nude mice, aged 6-8 weeks, female
(§8) 1) human large cell lung cancer cell H460, ovarian cancer cell SKOV3, breast cancer cell line HCC1954, and human breast cancer cell SK-BR-3 were incubated at 37° C., 5% CO2 in IMDM medium containing 10% fetal bovine serum, the cells were passaged every 2-3 days.
(§9) 2) generation of tumors: 7×10^6 tumor cells were subcutaneously injected into the back of nude mice, and the mice were grouped for treatment after the tumor sizes were as large as about 100˜200 mm^3.
(§10) 3) treatment: 3 mice/group, treated with LDC11A, LDC11B, as well as controls MMAE and PBS with doses of 5 and 10 mg/kg every 5 days, three injections.
(§11) 4) the physical performance, body weights and tumor sizes of the animals were monitored. The number of animal death was recorded during the experiment.

Data set [4] relates to ovarian cancer cell SKOV3. Put plainly: Cytotoxicity test of conjugate LDC11B. The data set is classed as cell-based, human. The settings on record: SKOV3, incubated 15-30 min, then 2-3 days. The method, then: as §1, §2, §3, §4, §5, §6
For data set [5], the system named is Transplanted HCC1954 tumor. Put plainly: Inhibitory assay of conjugates LDC11A, LDC11B against xenograf tumors. The settings on record: for Body weight of mice / Tumor size: HCC1954 tumor, 10 mg/kg. It is filed as in vivo, nude mice. The method, then:
as §7, §8, §9, §10, §11

For data set [6], the system named is Transplanted SKOV3 tumor. The data set is described as above. The data set is classed as in vivo, nude mice. Conditions: for Body weight of mice / Tumor size: SKOV3 tumor, 10 mg/kg. The method, then: as §7, §8, §9, §10, §11
Setting [7] is: H460 tumor, 10 mg/kg, Before Injection.
Where [8] appears, read: H460 tumor, 10 mg/kg, Five days after Injection 1.
The mark [9] stands for this setting: H460 tumor, 10 mg/kg, Five days after Injection 2.
Setting [10] is: H460 tumor, 10 mg/kg, Five days after Injection 3.

For the compound `CC[C@H](C)[C@@H]([C@@H](CC(=O)N1CCC[C@H]1[C@H](OC)[C@@H](C)C(=O)N[C@H](C)[C@@H](O)c1ccccc1)OC)N(C)C(=O)[C@@H](NC(=O)[C@H](C(C)C)N(C)C(=O)OCc1ccc(NC(=O)[C@H](CCCNC(N)=O)NC(=O)[C@@H](NC(=O)CCCCCN2C(=O)CC(SC[C@H](NC(=O)CNC(=O)[C@@H]3CCCN3C(=O)[C@H](CCCNC(=N)N)NC(=O)[C@H](CC(C)C)NC(=O)CNC(=O)[C@H](Cc3ccc(O)cc3)NC(=O)[C@H](CO)NC(=O)[C@H](Cc3c[nH]c4ccccc34)NC(=O)[C@H](Cc3c[nH]cn3)NC(=O)[C@@H](N)CCC(=O)O)C(=O)O)C2=O)C(C)C)cc1)C(C)C` (stereo partly drawn) [LDC11A, P11-MC-Val-Cit-PAB-MMAE, reference compound], the results for the IC50 in data set [1], in data set [2] and in data set [4] were 1.31 µM, 0.667 µM and 0.341 µM, respectively. The “animal death / toxicity (in words)” value in data set [3] (H460 tumor, 10 mg/kg) is recorded as “dead after the first injection”. In addition, the “Body weight of mice” value in data set [3] (setting [7]) is on record as 24.46 g; in data set [3] (setting [8]) it was “Death”; in data set [3] (H460 tumor, 10 mg/kg, Three days after Injection 1), 18.25 g.
Consider `CC[C@H](C)[C@@H]([C@@H](CC(=O)N1CCC[C@H]1[C@H](OC)[C@@H](C)C(=O)N[C@H](C)[C@@H](O)c1ccccc1)OC)N(C)C(=O)[C@@H](NC(=O)[C@H](C(C)C)N(C)C(=O)OCc1ccc(NC(=O)[C@H](CCCNC(N)=O)NC(=O)[C@@H](NC(=O)CCCCCN2C(=O)CC(SC[C@H](NC(=O)CNC(=O)[C@@H]3CCCN3C(=O)[C@H](CCCNC(=N)N)NC(=O)[C@H](CC(C)C)NC(=O)CNC(=O)[C@H](Cc3ccc(O)cc3)NC(=O)[C@H](CO)NC(=O)[C@H](Cc3c[nH]c4ccccc34)NC(=O)[C@H](Cc3c[nH]cn3)NC(=O)[C@H](CCC(=O)O)NC(=O)CC[C@H](NC(=O)c3ccc(NCC4=Nc5c([nH]c(N)nc5=O)NC4)cc3)C(=O)O)C(=O)O)C2=O)C(C)C)cc1)C(C)C` (some centres unmarked) [LDC11B], for which inhibition in data set [1] was half-maximal at 0.524 µM (IC50). Further, the “tumor growth (in words)” value in data set [5] (HCC1954, three injections at 10 mg/kg) is “can inhibit the tumor growth”; in data set [3] (H460, three injections at 10 mg/kg), “can inhibit the tumor growth”; in data set [6] (SKOV3, three injections at 10 mg/kg) it was “can inhibit the tumor growth”. Also, the “Body weight of mice” value in data set [5] (Before Injection) was 22.76 g; in data set [5] (Five days after Injection 1) it was 22.56 g; in data set [5] (Five days after Injection 2), 23.15 g; in data set [5] (Five days after Injection 3), 23.48 g; in data set [3] (setting [7]) it was 21.85 g; in data set [3] (setting [8]) it was 22.2 g. Besides, the “Body weight of mice” value is listed as 22.55 g in data set [3] (setting [9]); 22.38 g in data set [3] (setting [10]); 22.11 g in data set [6] (Before Injection); 24.28 g in data set [6] (Five days after Injection 1); 23.6 g in data set [6] (Five days after Injection 2); 24.92 g in data set [6] (Five days after Injection 3). Also, the Tumor size in data set [5] (Before Injection) was 218.76 mm^3; in data set [5] (Five days after Injection 1) it was 87.51 mm^3; in data set [5] (Five days after Injection 2), 0 mm^3; in data set [5] (Five days after Injection 3), 0 mm^3; in data set [3] (setting [7]) it was 225.32 mm^3; in data set [3] (setting [8]), 108.73 mm^3. In addition, the Tumor size in data set [3] (setting [9]) was 0 mm^3; in data set [3] (setting [10]), 0 mm^3; in data set [6] (Before Injection), 169.22 mm^3; in data set [6] (Five days after Injection 1), 137.66 mm^3; in data set [6] (Five days after Injection 2), 76.13 mm^3; in data set [6] (Five days after Injection 3), 27.84 mm^3.
